In patent US11731946B2, “Broad spectrum antivirulence, anti-persistence compounds” (priority 2017, dated 2023):
pKd: −log10 of the molar value. Several values for one entry are separate records, joined by “and”; a condition that tells them apart may be missing. Equal entries are not always repeated.

Tests used:
MvfR regulon [1] = assay: Quantification of pyocyanin (OD520nm of chloroform-extracted cultures); format: cell-based, P. aeruginosa; settings: Pseudomonas aeruginosa
MvfR regulon [2] = assay: pqsA gene expression (pqsA-GFP reporter); format: cell-based, P. aeruginosa; settings: Pseudomonas aeruginosa
MvfR regulon [3] = assay: LC/MS quantification of HAQs and related molecules in bacterial culture supernatants; format: cell-based, P. aeruginosa; settings: for IC50 / activity at 50 µM: Pseudomonas aeruginosa
MvfR = target: T1, MvfR (Pseudomonas aeruginosa, UniProt Q9I4X0); assay: Surface plasmon resonance (SPR) binding to purified MvfR co-inducer binding domain; parameters: species or system P. aeruginosa; settings: for Kd: steady state
T1 construct: made in house
T1 sequence (Q9I4X0 91-332): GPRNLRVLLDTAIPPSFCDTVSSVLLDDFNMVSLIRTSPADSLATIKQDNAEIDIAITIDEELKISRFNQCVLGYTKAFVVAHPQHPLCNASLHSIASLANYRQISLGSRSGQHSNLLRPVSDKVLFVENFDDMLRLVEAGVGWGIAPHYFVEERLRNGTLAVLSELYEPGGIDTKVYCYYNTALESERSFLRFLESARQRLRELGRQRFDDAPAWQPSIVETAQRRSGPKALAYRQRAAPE
In short: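 The recombinant His-purified MvfR co-inducer binding domain was amine-coupled to the sensor chip at a target level of 5000 RU. Compound binding measured by SPR; KD taken from steady-state analysis.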

PA14 [4] = assay: Antibiotic tolerance/persister (AT/P) cell formation, meropenem, CFU plating; format: cell-based, P. aeruginosa; settings: 50 μM compound
Protocol: Wild type (PA14) P. aeruginosa was grown in liquid culture with or without Compound 54 and treated with meropenem according to published procedures (see e.g., Starkey et al, PLoS Pathog. 2014, 10:e1004321). Data are expressed as fraction of original culture surviving antibiotic treatment.
AT/P efficacy of compounds using CFU plating was assessed by growning over-night, cultures diluted 1:100 in triplicate in fresh LB medium in the presence or absence of inhibitor, and re-grown to an OD600 of 2.0 while shaking under aeration at 37° C. Before the antibiotic treatment, aliquots were plated to obtain reference colony counts. […] At 24-h and 48-h time points, the number of surviving bacteria were assessed by plating. The survival fraction of AT/P cells was calculated by dividing the number of surviving bacteria by the number of live bacteria that were present before the antibiotic treatment (reference datum) and expressed as a mean (±SD) of at least three replicate experiments. Using the same CFU plating assay, the efficacy of all compounds identified will be tested against additional antibiotic classes: b-lactams (ceftazidime, cefepime and imipenem), quinolones (ciprofloxacin, moxifloxacin, and levofloxacin), and aminoglycosides (gentamicin and tobramycicn).

[5] = Pharmacokinetics in mouse plasma and lung after single subcutaneous injection; format: in vivo, mice; settings: for stability in vivo (serum concentration): 10 mg/kg subcutaneous, over 24 h
Protocol: FIGS. 1F-1G show pharmacokinetics measured in mouse plasma (FIG. 1F) and lung (FIG. 1G) following a single subcutaneous injection of Compounds 53, 54, or 72 at 10 mg/kg.

PA14 [6] = assay: Acute mouse lung infection model (PA14); format: in vivo, mice
[7] = system: Caco2 intestinal epithelial cells; assay: Survival of Caco2 cells after compound exposure; format: cell-based; settings: 25 μM, 3 hours exposure

N#Cc1ccc(NC(=O)CC(=O)Nc2ccc(Br)cc2)cc1 [Compound 54]
IC50 (MvfR regulon [1]; read-out: IC50 pyocyanin (μM)): 1.8 µM
activity at 1 µM (MvfR regulon [1]; read-out: pyocyanin @1 uM (%), compound at 1 uM): 60.8%
activity at 10 µM (MvfR regulon [1]; read-out: pyocyanin @10 uM (%), compound at 10 uM): 5.9%
activity at 50 µM (MvfR regulon [1]; read-out: pyocyanin @50 uM (%), compound at 50 uM): 5.7%
IC50 (MvfR regulon [2]; read-out: IC50 pqsA (μM)): 1.28 µM
activity at 10 µM (MvfR regulon [2]; read-out: pqsA @10 uM (%), compound at 10 uM): 8.8%
activity at 50 µM (MvfR regulon [2]; read-out: pqsA @50 uM (%), compound at 50 uM): 7.93%
IC50 (MvfR regulon [3]; PA14, read-out: IC50 2-AA (μM)): 4.7 µM
IC50 (MvfR regulon [3]; PA14, read-out: IC50 DHQ (μM)): 10.1 µM
IC50 (MvfR regulon [3]; PA14, read-out: IC50 HHQ (μM)): 11.2 µM
IC50 (MvfR regulon [3]; PA14, read-out: IC50 PQS (μM)): 7.8 µM
activity at 50 µM (MvfR regulon [3]; read-out: 2-AA @50 uM): 5.63%
activity at 50 µM (MvfR regulon [3]; read-out: AA @50 uM): 701%
activity at 50 µM (MvfR regulon [3]; read-out: DHQ @50 uM): 10.6%
activity at 50 µM (MvfR regulon [3]; read-out: HHQ @50 uM (%)): 1.76%
activity at 50 µM (MvfR regulon [3]; read-out: HQNO @50 uM (%)): 12.5%
IC50 (MvfR regulon [3]; read-out: IC50 AA (increase; μM)): 11.3 µM
IC50 (MvfR regulon [3]; read-out: IC50 HQNO (μM)): 8.7 µM
activity at 50 µM (MvfR regulon [3]; read-out: PQS @50 uM (%)): 7.4%
reduction of hydroxy-2-alkylquinoline (HAQ) and 2-AA production (MvfR regulon [3]; liquid culture grown with 50 µM Compound 54 (FIG. 1C)): 5 to 10 fold
binding to MvfR (in words) (MvfR; FIG. 1B): high affinity
Signal Intensity Rmax (MvfR; SPR): 28.21
binding intensity relative to parent Compound 1 (MvfR; SPR): 40 times
Kd (MvfR; Steady State Binding Affinity KD (μM), SPR): 0.275 µM
Kd (MvfR; Steady State Binding Affinity KD [M], SPR): 0.275 µM
pKd (MvfR; mean KD value, SPR, mean over the compounds named): ~6.60 and 6.60
inhibition of persistence (PA14 [4]): inhibit persistence
stability in vivo (serum concentration) [5]: stable in vivo
stability in vivo (serum concentration) ([5]; listed as D42): highly stable in vivo
pharmacokinetics (in words) ([5]; mouse, in vivo): promising pharmacokinetics
potentiation of ciprofloxacin in reducing PA cells in mice lungs (PA14 [6]; 10 mg/kg compound SC plus ciprofloxacin 1 mg/kg IP, CFUs 24 h post-infection): potentiates ciprofloxacin efficacy
recoverable CFUs from infected lungs (PA14 [6]; preliminary, intranasal infection, 10 mg/kg compound vs vehicle): reduces the recoverable CFUs from infected lungs
toxicity to Caco2 (survival) [7]: not toxic
